The text below walks through data of ChEMBL document CHEMBL5360649, “Potential Broad-Spectrum Antimicrobial, Wound Healing, and Disinfectant Cationic Peptide Crafted from Snake Venom” (J Med Chem, 2023).

The source made the active and inactive calls. No cut-off for these calls is given here.

A short description of series [1]: Stability in human serum assessed as half-life at 1 mM by HPLC analysis. The format is ADME, cell-free.
Series [2] deals with Escherichia coli. Nature of the series: Antibacterial activity against Escherichia coli ATCC CRM-11229 assessed as inhibition of bacterial growth incubated for 24 hrs by CLSI protocol based microdilution method. The format is functional.
Series [3] has as its system Escherichia coli. As to the kind of experiment: Antibacterial activity against Escherichia coli assessed as inhibition of bacterial growth at 1.25 to 40 uM incubated for 8 hrs by microtiter plate reader analysis. In kind it is functional, organism-based. The following applies: dose 1.25-40 µM.
The subject of series [4] is Klebsiella pneumoniae. Nature of the series: Induction of morphological changes in carbapenem resistant Klebsiella pneumoniae ATCC BAA-1705 at MIC concentration incubated for 6 hrs by SEM analysis. The format is functional, organism-based.
Series [5] deals with Staphylococcus aureus. Nature of the series: Induction of morphological changes in methicillin-resistant Staphylococcus aureus at MIC concentration incubated for 60 mins by SEM analysis. In kind it is functional, organism-based.
In series [6] the test system is Escherichia coli. Nature of the series: Induction of morphological changes in Escherichia coli assessed as membrane perturbation at MIC concentration incubated for 60 mins by SEM analysis. The format is functional, organism-based.
For series [7], the system named is Staphylococcus aureus. As to the kind of experiment: Antibiofilm activity against methicillin-resistant Staphylococcus aureus assessed as biofilm eradication at 0.5 times of MIC incubated for 24 hrs by CV staining based analysis relative to control. In kind it is functional.
Series [8] concerns Klebsiella pneumoniae. Nature of the series: Antibiofilm activity against Klebsiella pneumoniae assessed as eradication of preformed biofilm at 1 times of MIC incubated for 24 hrs by CV staining based analysis relative to control. The format is functional.

For H-FLPIIKWVKKFFWRWR-OH, in series [1], the half-life at 1000 µM is roughly 1440 min. In addition, the MIC in the series on Escherichia coli [2] turned out to be 3.5 µM. The result in the series on Escherichia coli [3], with Klebsiella pneumoniae [4], with Staphylococcus aureus [5] and with Escherichia coli [6] was Active. Moreover, the values for the Activity in the series on Staphylococcus aureus [7] and with Klebsiella pneumoniae [8] were roughly 70% and roughly 88%, respectively.
